Like-named read-outs stand apart in the source and are kept apart here.
How the values were obtained:
[1] = biological target: T1, human D1 receptors (Homo sapiens, UniProt P21728); test: Radioligand binding competition assay at D1 receptor
T1 construct: expressed in transfected cells; host or cells: Ltk- cells (mouse fibroblasts); membrane preparation
Procedure: (§1) Affinity values (Ki) of compounds at human D1 and D2 receptors were ascertained using radioligand binding competition assays. Ltk-cells expressing D1 and D2 (long variant) receptors were lysed in hypotonic buffer for membrane preparation. Membranes were incubated with various concentrations of test compound and 1 nM [3H] of a compound of formula III and 0.2 nM [3H] Methylspiperone for D1 and D2 assays, respectively. Non-specific binding was defined as binding in the presence of 10 micromolar of a compound of formula III for D1 assays and 10 micromolar butaclamol for […]. Following incubation to equilibrium (1 hour at room temperature), bound radioligand was separated from free by rapid filtration. Bound radioactivity on the dried filters was quantified by liquid scintillation counting.
(§2) Selectivity is determined by dividing Ki for D2 receptor by Ki for D1 receptor.

[2] = tested on: human D1 receptors; test: as above; conditions: Ki for D2 receptor divided by Ki for D1 receptor
Procedure: as §1, §2

[3] = class by Ki (D1) and selectivity (Ki D2 / Ki D1), human D1 and D2 (long variant) receptors, Ltk- cell membranes, read-out: D1 binding and D2:D1 Selectivity

T1 sequence (P21728 whole entry): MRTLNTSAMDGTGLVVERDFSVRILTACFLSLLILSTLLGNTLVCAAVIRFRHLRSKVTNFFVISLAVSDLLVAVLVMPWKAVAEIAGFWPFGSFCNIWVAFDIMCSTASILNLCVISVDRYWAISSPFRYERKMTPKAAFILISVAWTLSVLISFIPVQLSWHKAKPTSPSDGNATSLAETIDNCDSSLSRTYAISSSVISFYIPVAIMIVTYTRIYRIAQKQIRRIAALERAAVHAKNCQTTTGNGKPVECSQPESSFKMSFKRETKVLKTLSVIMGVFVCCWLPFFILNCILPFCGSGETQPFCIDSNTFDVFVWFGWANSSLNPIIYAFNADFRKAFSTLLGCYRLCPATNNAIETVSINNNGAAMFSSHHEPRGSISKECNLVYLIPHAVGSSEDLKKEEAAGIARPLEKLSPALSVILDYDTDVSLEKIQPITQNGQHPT

Ki [1, 3] [µM]	Ki [1] [µM]	Structure (SMILES)	other results
< 0.005		CN(C)Cc1cccc2c1CC[C@H]1[C@H]2c2cc(O)c(Cl)cc2CCN1C [5a50]	
< 0.005		C[C@@H](NCc1ccc(C2CN(C)CCc3cc(Cl)c(O)cc32)cc1)C1CCCCC1 (stereo partly drawn) [5c16]	
0.01 to 0.05		CN1CCc2cc(Cl)c(O)cc2[C@H]2c3cc(CN(Cc4ccccc4)C(=O)c4ccccc4)ccc3CC[C@@H]21 [6b1]	
< 0.005		CN1CCc2cc(Cl)c(O)cc2C(c2ccc(CN(C)S(=O)(=O)c3ccccc3)cc2)C1 (stereo not drawn) [7c18]	
0.01 to 0.05		CCNC(=O)N(Cc1ccc(F)cc1)Cc1cccc2c1CC[C@H]1[C@H]2c2cc(O)c(Cl)cc2CCN1C [8a3]	
< 0.1		CC(C)NC(=O)N(Cc1ccc2c(c1)[C@@H]1c3cc(O)c(Cl)cc3CCN(C)[C@H]1CC2)c1ccccc1 [8b11]	
0.01 to 0.05		CN1CCN(C(=O)c2cccc3c2CCC2C3c3cc(O)c(Cl)cc3CCN2C)CC1 (stereo not drawn) [13a6]	
< 0.01		CN(C)C(=O)c1cccc2c1CCC1C2c2cc(O)c(Cl)cc2CCN1C (stereo not drawn) [13a12]	
< 0.01		CN1CCc2cc(Cl)c(O)cc2C2c3cccc(C(=O)NCc4ccccn4)c3CCC21 (stereo not drawn) [13a14]	
< 0.01		CN1CCc2cc(Cl)c(O)cc2C2c3cccc(C(=O)NCc4cccnc4)c3CCC21 (stereo not drawn) [13a16]	
< 0.01		CN1CCc2cc(Cl)c(O)cc2C2c3cccc(C(=O)NCc4ccncc4)c3CCC21 (stereo not drawn) [13a19]	
< 0.01		CN1CCc2cc(Cl)c(O)cc2C2c3cccc(C(=O)NCCc4ccccn4)c3CCC21 (stereo not drawn) [13a20]	
< 0.01		CN1CCc2cc(Cl)c(O)cc2C2c3cccc(C(=O)NCc4ccccc4)c3CCC21 (stereo not drawn) [13a21]	
	0.01 to 0.05	CN1CCc2cc(Cl)c(O)cc2[C@H]2c3cc(S(=O)(=O)NCc4ccccc4)ccc3CC[C@@H]21 [15l]	
< 0.005		CN1CCc2cc(Cl)c(O)cc2[C@H]2c3ccc(NC(=O)C4CC4)cc3CC[C@@H]21 [18a1]	
	< 0.01	CC(=O)Nc1ccc2c(c1)CC[C@H]1[C@H]2c2cc(O)c(Cl)cc2CCN1C [18a4]	
	< 0.005	CN1CCc2cc(Cl)c(O)cc2[C@H]2c3ccc(NC(=O)C4CCCC4)cc3CC[C@@H]21 [18a6]	
	0.01 to 0.05	CN1CCc2cc(Cl)c(O)cc2[C@H]2c3cccc(NC(=O)c4cccc5ccccc45)c3CC[C@@H]21 [18b15]	
	< 0.005	CN1CCc2cc(Cl)c(O)cc2[C@H]2c3cccc(NC(=O)N4CCCC4)c3CC[C@@H]21 [20a7]	
	< 0.005	CN(C)C(=O)Nc1cccc2c1CC[C@H]1[C@H]2c2cc(O)c(Cl)cc2CCN1C [20a8]	
	< 0.005	CN1CCc2cc(Cl)c(O)cc2[C@H]2c3ccc(NC(=O)Nc4c(Cl)cccc4Cl)cc3CC[C@@H]21 [20b30]	
< 0.005		CN1CCc2cc(Cl)c(O)cc2[C@H]2c3ccc(NCc4ccccc4)cc3CC[C@@H]21 [21a1]	
	< 0.005	CN1CCc2cc(Cl)c(O)cc2[C@H]2c3ccc(NCC4CCCC4)cc3CC[C@@H]21 [21a2]	
< 0.005		CN1CCc2cc(Cl)c(O)cc2[C@H]2c3cccc(-c4ncc[nH]4)c3CC[C@@H]21 [25c]	
< 0.01		CC(=O)N(Cc1ccc([C@H]2CNCCc3cc(Cl)c(O)cc32)cc1)C1CCC1 [34a2]	
< 0.005		CN1CCc2cc(Cl)c(O)cc2C(c2ccc(NS(C)(=O)=O)cc2)C1 (stereo not drawn) [35a1]	
< 0.005		CN1CCc2cc(Cl)c(O)cc2[C@H]2c3ccc(N(C)S(C)(=O)=O)cc3CC[C@@H]21 [compound 23]	

Continued, compound first:

Structure (SMILES)	Ki [1, 3] [µM]	Ki [1] [µM]	other results
CN1CCc2cc(Cl)c(O)cc2[C@H]2c3cccc(CNCc4ccccc4)c3CC[C@@H]21 [5a1]	< 0.005		
CN1CCc2cc(Cl)c(O)cc2[C@H]2c3cccc(CNC(c4ccccc4)c4ccccc4)c3CC[C@@H]21 [5a14]	< 0.01		
CN1CCc2cc(Cl)c(O)cc2[C@H]2c3cccc(CNC4CC4)c3CC[C@@H]21 [5a38]	< 0.005		
CN1CCc2cc(Cl)c(O)cc2[C@H]2c3cc(CNc4cccnc4)ccc3CC[C@@H]21 [5b46]	< 0.1		
CC(=O)N(Cc1cccc2c1CC[C@H]1[C@H]2c2cc(O)c(Cl)cc2CCN1C)c1ccccc1 [6a6]	0.01 to 0.05		
CC(=O)N(Cc1ccc(C2CN(C)CCc3cc(Cl)c(O)cc32)cc1)C1CCC1 (stereo not drawn) [6c26]	< 0.005		
CN1CCc2cc(Cl)c(O)cc2[C@H]2c3cc(CN(Cc4ccccc4)S(C)(=O)=O)ccc3CC[C@@H]21 [7b7]	< 0.1		
CN1CCc2cc(Cl)c(O)cc2C(c2ccc(CN(C3CCC3)S(C)(=O)=O)cc2)C1 (stereo not drawn) [7c16]	< 0.005		
CCCN(Cc1ccc(C2CN(C)CCc3cc(Cl)c(O)cc32)cc1)C(=O)Nc1ccccc1 (stereo not drawn) [8c33]	< 0.01		
CN1CCc2cc(Cl)c(O)cc2C2c3cccc(C(=O)N4CCN(c5ccccn5)CC4)c3CCC21 (stereo not drawn) [13a2]	< 0.01		
CN1CCc2cc(Cl)c(O)cc2C2c3cccc(C(=O)NCCc4ccccc4)c3CCC21 (stereo not drawn) [13a7]	< 0.005		
CNC(=O)c1cccc2c1CCC1C2c2cc(O)c(Cl)cc2CCN1C (stereo not drawn) [13a24]	< 0.005		
CC(NC(=O)c1ccc(C2CN(C)CCc3cc(Cl)c(O)cc32)cc1)c1ccccc1 (stereo not drawn) [13d1]	0.01 to 0.05		
CN1CCc2cc(Cl)c(O)cc2[C@H]2c3ccc(NC(=O)CC4CC4)cc3CC[C@@H]21 [18a8]		< 0.01	
CN1CCc2cc(Cl)c(O)cc2[C@H]2c3cccc(NS(=O)(=O)c4ccc(F)cc4)c3CC[C@@H]21 [19a6]		< 0.01	
CN1CCc2cc(Cl)c(O)cc2[C@H]2c3ccc(NS(C)(=O)=O)cc3CC[C@@H]21 [19b1]	< 0.005		Ki ([1]; membranes of Ltk- cells expressing human D1, 1 nM [3H] compound of formula III, 1 hour at room temperature, read-out: Ki (D1)): 0.00045 µM; D2:D1 ratio (selectivity) [2]: 6642
CCS(=O)(=O)Nc1ccc2c(c1)CC[C@H]1[C@H]2c2cc(O)c(Cl)cc2CCN1C [19b5]		< 0.005	

Structure (SMILES)	Ki [1, 3] [µM]	Ki [1] [µM]	other results
CCCS(=O)(=O)Nc1ccc2c(c1)CC[C@H]1[C@H]2c2cc(O)c(Cl)cc2CCN1C [19b23]		< 0.005	
CN1CCc2cc(Cl)c(O)cc2[C@H]2c3ccc(NS(=O)(=O)c4cccc(C#N)c4)cc3CC[C@@H]21 [19b24]		< 0.01	
CN1CCc2cc(Cl)c(O)cc2[C@H]2c3ccc(NS(=O)(=O)Cc4ccccc4)cc3CC[C@@H]21 [19b31]		< 0.005	
CN1CCc2cc(Cl)c(O)cc2[C@H]2c3ccc(NS(=O)(=O)N(C)C)cc3CC[C@@H]21 [19b32]		< 0.005	
CN1CCc2cc(Cl)c(O)cc2[C@H]2c3cccc(NC(=O)Nc4cc(Cl)nc(Cl)c4)c3CC[C@@H]21 [20a33]		0.01 to 0.05	
CN1CCc2cc(Cl)c(O)cc2[C@H]2c3ccc(NC(=O)Nc4ccccc4Cl)cc3CC[C@@H]21 [20b5]		< 0.01	
CCNC(=O)Nc1ccc2c(c1)CC[C@H]1[C@H]2c2cc(O)c(Cl)cc2CCN1C [20b6]		< 0.005	
CC(=O)N(CC1CCCC1)c1ccc2c(c1)CC[C@H]1[C@H]2c2cc(O)c(Cl)cc2CCN1C [22a2]	0.01 to 0.05		
CC(=O)N(CCCCc1ccccc1)c1ccc2c(c1)[C@@H]1c3cc(O)c(Cl)cc3CCN(C)[C@H]1CC2 [22b1]	0.01 to 0.05		
COC(=O)Nc1ccc2c(c1)CC[C@H]1[C@H]2c2cc(O)c(Cl)cc2CCN1C [24a1]	< 0.005		
CCOC(=O)Nc1ccc2c(c1)CC[C@H]1[C@H]2c2cc(O)c(Cl)cc2CCN1C [24a2]	< 0.005		
COc1ccc(OC(=O)Nc2ccc3c(c2)CC[C@H]2[C@H]3c3cc(O)c(Cl)cc3CCN2C)cc1 [24a3]		< 0.005	
COc1ccc(OC(=O)Nc2cccc3c2CC[C@H]2[C@H]3c3cc(O)c(Cl)cc3CCN2C)cc1 [24b2]		< 0.005	
CN1CCc2cc(Cl)c(O)cc2[C@H]2c3cccc(C#N)c3CC[C@@H]21 [27a]	< 0.01		
Oc1cc2c(cc1Cl)CCN[C@H]1CCc3c(-c4ccncc4)cccc3[C@H]21 [29c]	< 0.005		
CS(=O)(=O)Nc1ccc2c(c1)CC[C@@H]1NCCc3cc(Cl)c(O)cc3[C@@H]21 [30a]	< 0.01		
CN1CCc2cc(Cl)c(O)cc2C(c2ccc(NS(=O)(=O)c3ccccc3)cc2)C1 (stereo not drawn) [35a2]	< 0.01		
